Results from paper PMC11314063, “Inhibition of DNA Topoisomerase Ι by Flavonoids and Polyacetylenes Isolated from Bidens pilosa L” (Molecules, 2024).

Key:
[1] = SRB cytotoxicity assay, panel of five human cancer cell lines and one human hepatocyte cell line; conditions: human
Procedure: The cytotoxicities of 1–29 were tested by an SRB assay on a panel of five human cancer cell lines and one human hepatocyte cell line.
The cytotoxic activities of the compounds against cancer cells were examined with a sulforhodamine B (SRB) colorimetric assay. Cells were seeded at a density of 5 × 10^3/well in 96-well plates for 24 h; various concentrations of the tested compounds, dissolved in DMSO and diluted with the complete medium, were added in the wells in triplicate and incubated for 48 h. After that, the cell viability was assessed with the SRB assay as we described before. The IC50 values were determined using the Reed and Muench method and are expressed as the mean ± SD of at least three independent measurements.

[2] = SRB cytotoxicity assay, hepatocyte HL-7702; assay type: cell-based, human; conditions: HL-7702 hepatocyte cell line; SRB assay, 48 h, human hepatocyte, mean ± SD; read-out: IC50 Cytotoxicity HL-7702
Excerpt: (§1) The cell lines MDA-MB-231 (No. TCHu227), A549 (No. TCHu150), and HepG2 (No. TCHu72) were obtained from the Cell Bank/Stem Cell Bank, Chinese Academy of Sciences (Shanghai, China). The cell lines DLD-1 (No. CC0507) and HCT116 (No. CC0506) were obtained from the Cell Bank of Cellcook Biotech Co., Ltd. (Guangzhou, China). Cell line HL-7702 (No. BNCC338358) was obtained from Bena Culture Collection (Zhengzhou, China).
(§2) The human cancer cell lines MDA-MB-231 (breast adenocarcinoma), DLD-1 (colorectal adenocarcinoma), A549 (lung epithelial carcinoma), HCT116 (colorectal adenocarcinoma), HepG2 (hepatocellular carcinoma), and human hepatocyte HL-7702 were cultured in Dulbecco’s modified eagle medium (DMEM, Biological Industries, Beit Haemek, Israel) containing 10% (v/v) fetal bovine serum (FBS, Biological Industries, Beit Haemek, Israel) at 37 °C in a humidified incubator (ThermoFisher, Carlsbad, CA, USA) with a 5% CO2 atmosphere.

MDA-MB-231 = experiment: SRB cytotoxicity assay, MDA-MB-231; assay type: cell-based; conditions: Homo sapiens, MDA-MB-231; SRB assay, 48 h, mean ± SD; read-out: IC50 Cytotoxicity MDA-MB-231
Excerpt: as §1, §2

HepG2 = experiment: SRB cytotoxicity assay, HepG2; assay type: cell-based; conditions: Homo sapiens, HepG2; SRB assay, 48 h, mean ± SD; read-out: IC50 Cytotoxicity HepG2
Excerpt: as §1, §2

A549 = experiment: SRB cytotoxicity assay, A549; assay type: cell-based; conditions: Homo sapiens, A549; SRB assay, 48 h, mean ± SD; read-out: IC50 Cytotoxicity A549
Excerpt: as §1, §2

DLD-1 = experiment: SRB cytotoxicity assay, DLD-1; assay type: cell-based; conditions: Homo sapiens, DLD-1; SRB assay, 48 h, mean ± SD; read-out: IC50 Cytotoxicity DLD-1
Excerpt: as §1, §2

DNA Topo I = biological target: T1, DNA Topo I (Homo sapiens, UniProt P11387); experiment: Topo I inhibition assay (DNA relaxation assay); assay type: biochemical; conditions: for IC50: DNA relaxation assay, pBR322, mean ± SD; for inhibition at 400 µM: read-out: percentage inhibition on Topo I activity
T1 construct: purchased ThermoFisher, Waltham, MA, USA
T1 sequence (P11387 1-765): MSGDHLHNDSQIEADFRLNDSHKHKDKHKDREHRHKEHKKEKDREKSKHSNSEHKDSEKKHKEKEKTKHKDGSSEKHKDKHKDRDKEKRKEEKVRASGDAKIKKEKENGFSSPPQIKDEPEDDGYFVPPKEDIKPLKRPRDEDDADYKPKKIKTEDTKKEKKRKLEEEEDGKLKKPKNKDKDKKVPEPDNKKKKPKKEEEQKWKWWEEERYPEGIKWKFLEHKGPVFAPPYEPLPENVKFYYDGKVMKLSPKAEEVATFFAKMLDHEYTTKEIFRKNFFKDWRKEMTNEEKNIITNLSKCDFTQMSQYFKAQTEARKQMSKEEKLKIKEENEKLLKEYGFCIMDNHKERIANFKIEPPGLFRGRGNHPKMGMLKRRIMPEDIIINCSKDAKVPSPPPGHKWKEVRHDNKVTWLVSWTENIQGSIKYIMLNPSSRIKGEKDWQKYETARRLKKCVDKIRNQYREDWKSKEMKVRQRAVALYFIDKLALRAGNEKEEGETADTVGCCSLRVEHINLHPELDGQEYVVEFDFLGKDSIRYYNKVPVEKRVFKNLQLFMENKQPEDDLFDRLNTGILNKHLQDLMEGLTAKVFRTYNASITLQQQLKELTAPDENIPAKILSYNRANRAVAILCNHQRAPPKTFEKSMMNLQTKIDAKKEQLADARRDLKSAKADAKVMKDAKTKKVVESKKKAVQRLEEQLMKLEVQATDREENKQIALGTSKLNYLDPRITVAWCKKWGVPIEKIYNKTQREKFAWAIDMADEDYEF
Procedure: The DNA relaxation assay was adopted to investigate the compounds’ inhibitory activities on Topo I. Different concentrations of the compounds, dissolved and diluted in DMSO, were added into the relaxation buffer (50 mM Tris, pH 7.5, 50 mM KCl, 10 mM MgCl2, 0.1 mM EDTA, 0.5 Mm dithiothreitol, and 0.05 mg/mL bovine serum albumin) containing 0.2 U Topo I (ThermoFisher, Waltham, MA, USA) and incubated at room temperature for 10 min. After that, 500 ng supercoiled pBR322 plasmid DNA (ThermoFisher, Waltham, MA, USA) was added and then incubated at 37 °C for another 30 min. Finally, the reactions were stopped with a stopping solution (5% sodium dodecyl sulfate, 0.0025% bromophenol blue, and 25% glycerol), and the mixtures were applied onto 0.8% agarose gel and subjected to electrophoresis for 1.5 h in Tris-Acetate-EDTA buffer. After being stained with GelRed (Biotium, Fremont, CA, USA), the gel was imagined with the imaging system (Biotop, Shanghai, China). […] The band density of the supercoiled DNA was quantified by the ImageJ software (version 1.53a, National Institutes of Health, Bethesda, MD, USA), and the inhibition activity is expressed as the percentage inhibition and calculated by formula: Inhibition % = [(A − B)/(C − B)] × 100%, where A is the band density of the tested samples, B is the band density of the negative control, and C is the band density of the blank control.

HCT116 = experiment: SRB cytotoxicity assay, HCT116; assay type: cell-based; conditions: Homo sapiens, HCT-116; SRB assay, 48 h, mean ± SD; read-out: IC50 Cytotoxicity HCT116
Excerpt: as §1, §2

HCT116 cells = experiment: DNA content analysis (cell cycle, flow cytometry) in HCT116; assay type: cell-based, human; conditions: 24 h
Procedure: (§3) Cells were seeded in 6-well plates and allowed to adhere for 24 h at 37 °C. After treatment with different concentrations of the samples for another 24 h, the cells were harvested and washed with PBS, and then, the DNA content analysis was conducted with a cell cycle staining kit (Multi sciences, Hangzhou, China), according to the manufacturer’s instructions. The fluorescence intensity of the cells was measured by flow cytometry (Beckman CytoFlex, Miami, FL, USA).
Figure S21 Results of flavonoid 5 induced cell cycle arrests in HCT116 cells. A)
Representative images of flow-cytometry analysis of DNA content; B) Statistic analysis
of cells in G1, S, and G2/M phase after treated with 5. After treatment with 2 and 1 μM
compounds 5 for 24 h, the percentages of cell population in the G2/M phase
respectively, which meant a potent G2/M cell cycle arrest caused by the treatment (P<
0.0001). In addition, after treatment with 0.5 μM compounds 5 for 24 h, the percentages
that an apparent G1 or S phase arrest was induced after the treatment with a lower
different from the vehicle control. Data are expressed as mean ± SD values from three
(1 picture or pasted object on this page, not shown here)

DLD-1 cells [3] = experiment: Western blot of cell cycle-related proteins in DLD-1; assay type: cell-based, human; conditions: 24 h
Procedure: Cells treated with the compounds were harvested, and the total protein was isolated with lysis buffer (72 mM Tris pH 6.8, 2% SDS, 10% glycerol, and 0.1% bromophenol blue). The proteins were subjected to SDS-PAGE and transferred to a 0.45 μm PVDF membrane (Millipore, Burlington, USA). After being blocked with 5% non-fat milk in TBST, the membranes were washed and then incubated with specific primary antibodies (Cdk2 and Cdk6 were purchased from BBI Life Sciences Corporation, Shanghai, China; cyclin A, cyclin B, cyclin D, cyclin E, Cdk1, and Cdk4 were purchased from Proteintech, Rosemont, IL, USA) in TBST containing 2% non-fat milk overnight at 4 °C. After washing, the membranes were incubated with secondary horseradish peroxidase (HRP)-conjugated antibodies at room temperature for 1 h. The blot was visualized using an enhanced chemiluminescence assay kit (Meilunbio, Dalian, China) under a chemiluminescence detector (Tanon, Shanghai, China). The band density of the blot was quantified by the ImageJ software with at least three independent experiments.

DLD-1 cells [4] = experiment: DNA content analysis (cell cycle, flow cytometry) in DLD-1; assay type: cell-based, human; conditions: 24 h
Procedure: as §3

Row | Structure (SMILES) | IC50 at 48 h [1] | IC50 at 48 h [2] | IC50 (MDA-MB-231) | IC50 (HepG2) | IC50 (A549) | IC50 (DLD-1) | IC50 (DNA Topo I) | inhibition at 400 µM (DNA Topo I) | IC50 (HCT116) | percentage of cells in the G1/S phase (HCT116 cells; HCT116, 0.5 μM) | percentage of cell population in the G2/M phase (HCT116 cells; HCT116, 1 μM) | percentage of cells in G1/S (combined) phase (HCT116 cells; HCT116, 1 μM) | percentage of cell population in the G2/M phase (HCT116 cells; HCT116, 2 μM) | percentage of cells in G1/S (combined) phase (HCT116 cells; HCT116, 2 μM) | expression levels of cyclin A, cyclin B, and CDK6 (DLD-1 cells [3]; DLD-1, 2 μM) | expression of cylcin D, cyclin E, and CDK6 (DLD-1 cells [3]; DLD-1, 1 and 0.5 μM) | percentage of cells in the G1/S phase (DLD-1 cells [4]; DLD-1, 0.5 μM) | percentage of cells in the G1/S phase (DLD-1 cells [4]; DLD-1, 1 μM) | percentage of cell population in the G2/M phase (DLD-1 cells [4]; DLD-1, 2 μM) | percentage of cells in the G1/S (combined) phase (DLD-1 cells [4]; DLD-1, 2 μM)
1 | COc1ccc(/C=C/C(=O)c2ccc(OC)cc2O)cc1 [Compound 3] | ≥ 50.5 µM | > 200 µM | 167 ± 5.63 µM | > 200 µM | 136 ± 25 µM | 117 ± 11.6 µM | > 400 µM | 24.6% | 178 ± 6.11 µM |  |  |  |  |  |  |  |  |  |  | 
2 | COc1ccc(-c2oc3cc(O)c(OC)c(O)c3c(=O)c2OC)cc1O [Compound 5] |  | 14.4 ± 0.45 µM | 39.7 ± 4.58 µM | 40.3 ± 11.1 µM | 2.16 ± 0.3 µM | 0.6 ± 0.05 µM | 146 ± 7.88 µM |  | 0.79 ± 0.13 µM | 91.23% | 81.84% | 18.13% | 89.72% | 10.16% | potently decreased | potent downregulation | 85.30% | 76.83% | 86.05% | 13.46%
3 | COc1ccc(-c2oc3cc(O[C@@H]4O[C@H](CO)[C@@H](O)[C@H](O)[C@H]4O)cc(O)c3c(=O)c2OC)cc1O [Compound 13] | ≥ 50.5 µM | > 200 µM | > 200 µM | > 200 µM | > 200 µM | 179 ± 5.94 µM | > 400 µM | 38.6% | 139 ± 11.3 µM |  |  |  |  |  |  |  |  |  |  | 
